Patent US20160102317A1, “PLANTS HAVING INCREASED TOLERANCE TO HERBICIDES” (BASF SE, priority 2013, published 2016)

How the values were obtained:
[1] = tested on: Rhodococcus HPPD (Seq ID 46); assay: HPPD activity assay, tolerance index; type: biochemical; conditions: Table 12; Rhodococcus (Seq ID 46); normalized to reference SEQ ID NO:53
Procedure: (§1) HPPD produces homogentisic acid and CO2 from 4-hydroxyphenylpyruvate (4-HPP) and 02. The activity assay for HPPD is based on the analysis of homogentisic acid by reversed phase HPLC. The assay mixture can contain 150 mM potassium phosphate buffer pH 7.0, 50 mM L-ascorbic acid, 100 μM Catalase (Sigma-Aldrich), 1 μM FeSO4 and 0.2 units of purified HPPD enzyme in a total volume of 505 μl. 1 unit is defined as the amount of enzyme that is required to produce 1 nmol of HGA per minute at 20° C.
(§2) After a preincubation of 30 min the reaction is started by adding 4-HPP to a final concentration of 0.05 mM. The reaction is allowed to proceed for 45 min at room temperature. The reaction is stopped by the addition of 50 μl of 4.5 M phosphoric acid. The sample is filtered using a […] pore size PVDF filtration device.
(§3) 5 μl of the cleared sample is analyzed on an UPLC HSS T3 column (particle size 1.8 μm, dimensions 2.1×50 mm; Waters) by isocratic elution using 90% 20 mM NaH2PO4 pH 2.2, 10% methanol (v/v).
(§4) HGA is detected electrochemically at 750 mV (mode: DC; polarity: positive) and quantified by integrating peak areas (Empower software; Waters).
(§5) Inhibitors are dissolved in DMSO (dimethylsulfoxide) to a concentration of 0.5 mM. From this stock solution serial five-fold dilutions are prepared in DMSO, which are used in the assay. The respective inhibitor solution accounts for 1% of the assay volume. Thus, final inhibitor concentrations range from 5 μM to 320 μM, respectively. […] IC50 values are calculated using non-linear regression.
(§6) Using methods which are described in the above examples or well known in the art, purified, recombinant wild-type HPPD enzymes are characterized with respect to their kinetic properties and sensitivity towards HPPD inhibiting herbicides. Apparent michaelis constants (Km) and maximal reaction velocities (Vmax) are calculated by non-linear regression with the software GraphPad Prism 5 (GraphPad Software, La Jolla, USA) using a substrate inhibition model. […] Weighted means (by standard error) of Km and IC50 values are calculated from at least three independent experiments. […]

Synechococcus HPPD = assay: HPPD activity assay, tolerance index; type: biochemical; conditions: Table 12, normalized to reference SEQ ID NO:53
Procedure: as §1, §2, §3, §4, §5, §6

[2] = tested on: Rhodococcus HPPD (Seq ID 44); assay: HPPD activity assay, tolerance index; type: biochemical; conditions: Table 12; Rhodococcus (Seq ID 44); normalized to reference SEQ ID NO:53
Procedure: as §1, §2, §3, §4, §5, §6

Picrophilus HPPD = assay: HPPD activity assay, tolerance index; type: biochemical, Picrophilus torridus; conditions: Table 12, normalized to reference SEQ ID NO:53
Procedure: as §1, §2, §3, §4
(§7) Inhibitors are dissolved in DMSO (dimethylsulfoxide) to a concentration of 0.5 mM. From this stock solution serial five-fold dilutions are prepared in DMSO, which are used in the assay. […] IC50 values are calculated using non-linear regression. […]

HPPD Seq ID 69 = assay: HPPD activity assay, tolerance index; type: biochemical, Zea mays; conditions: Table 12, normalized to reference SEQ ID NO:53
Procedure: as §1, §2, §3, §4, §7

HPPD Seq ID 67 = assay: HPPD activity assay, tolerance index; type: biochemical, Zea mays; conditions: Table 12, normalized to reference SEQ ID NO:53
Procedure: as §1, §2, §3, §4, §7

[3] = target: T1, Hordeum HPPD (SEQ ID: 2) L353M, P321R, V212I (Hordeum vulgare, UniProt O48604, L353M/P321R/V212I); assay: HPPD activity assay, in vitro characterization of HPPD mutants; type: biochemical; conditions: Table 16, Hordeum wild-type = 1
T1 construct: His (N); made in house; host or cells: E. coli BL21 (DE3)
Procedure: as §1, §2, §3, §4
(§8) Inhibitors are dissolved in DMSO (dimethylsulfoxide) to a concentration of 0.5 mM. From this stock solution serial five-fold dilutions are prepared in DMSO, which are used in the assay. The respective inhibitor solution accounts for 1% of the assay volume. […] Activities are normalized by setting the uninhibited enzyme activity to 100%. IC50 values are calculated using non-linear regression.
(§9) Purified, mutant HPPD enzymes are obtained by the methods described above. Dose response and kinetic measurements are carried out using the described HPPD activity assay. Apparent michaelis constants (Km) and maximal reaction velocities (Vmax) are calculated by non-linear regression with the software GraphPad Prism 5 (Graph Pad Software, La Jolla, USA) using a substrate inhibition model. […] Weighted means (by standard error) of Km and IC50 values are calculated from at least three independent experiments.
(§10) Field performance of the optimized HPPD enzyme, which is used as a herbicide tolerance trait may depend not only on its lack of sensitivity towards HPPD inhibiting herbicides but also on its activity. To assess the potential performance of a herbicide tolerance trait a tolerance index (TI) is calculated using the following formula: […]
(§11) Easy comparison and ranking of each trait is enabled by normalizing tolerance indexes on Arabidopsis wild-type HPPD.

[4] = target: T2, Hordeum HPPD (SEQ ID: 2) G407C (Hordeum vulgare, UniProt O48604, A164G/G407C/R146V/R147D/R148G); assay: as above; type: biochemical; conditions: Table 16, Hordeum wild-type = 1
T2 construct: His (N); made in house; host or cells: E. coli BL21 (DE3)
Procedure: as §1, §2, §3, §4, §8, §9, §10, §11

[5] = target: T3, Arabidopsis HPPD (SEQ ID: 53) M335H, P336A, E363Q (Arabidopsis thaliana, UniProt P93836, E363Q/M335H/P336A); assay: as above; type: biochemical; conditions: Table 15, Arabidopsis HPPD variant M335H, wild-type = 1
T3 construct: PCR-based site directed mutagenesis of pEXP5-NT/TOPO®-AtHPPD is done; His6 (N); made in house; host or cells: E. coli BL21 (DE3)
Procedure: as §1, §2, §3, §4, §8, §9, §10, §11

[6] = target: T4, Hordeum HPPD (SEQ ID: 2) F377L (Hordeum vulgare, UniProt O48604, A164G/F377L/R146V/R147D/R148G); assay: as above; type: biochemical; conditions: Table 16, Hordeum wild-type = 1
T4 construct: His (N); made in house; host or cells: E. coli BL21 (DE3)
Procedure: as §1
After a preincubation of 30 min the reaction is started by adding 4-HPP to a final concentration of 0.05 mM. The reaction is allowed to proceed for 45 min at room temperature. The reaction is stopped by the addition of 50 μl of 4.5 M phosphoric acid. […]
as §3, §4
Inhibitors are dissolved in DMSO (dimethylsulfoxide) to a concentration of 0.5 mM. […] IC50 values are calculated using non-linear regression.
Purified, mutant HPPD enzymes are obtained by the methods described above. […] Weighted means (by standard error) of Km and IC50 values are calculated from at least three independent experiments. […]

T1 sequence (O48604 whole entry R146V/R147D/R148G/A164G/V212I/P321R/L353M): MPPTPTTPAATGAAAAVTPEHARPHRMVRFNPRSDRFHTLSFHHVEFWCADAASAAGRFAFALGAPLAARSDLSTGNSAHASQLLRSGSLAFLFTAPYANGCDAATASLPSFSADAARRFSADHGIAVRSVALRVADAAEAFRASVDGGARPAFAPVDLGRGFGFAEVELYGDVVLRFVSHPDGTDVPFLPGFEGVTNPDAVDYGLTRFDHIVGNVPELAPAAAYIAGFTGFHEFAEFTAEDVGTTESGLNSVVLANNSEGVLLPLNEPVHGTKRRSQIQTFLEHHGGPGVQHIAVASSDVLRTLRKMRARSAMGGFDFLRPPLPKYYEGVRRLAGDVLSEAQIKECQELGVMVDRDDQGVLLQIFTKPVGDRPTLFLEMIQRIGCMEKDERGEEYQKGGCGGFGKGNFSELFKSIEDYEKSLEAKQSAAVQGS
T2 sequence (O48604 whole entry R146V/R147D/R148G/A164G/G407C): as the sequence (O48604 whole entry R146V/R147D/R148G/A164G/V212I/P321R/L353M) above, with I212V, R321P, M353L, G407C counted along it
T3 sequence (P93836 whole entry M335H/P336A/E363Q): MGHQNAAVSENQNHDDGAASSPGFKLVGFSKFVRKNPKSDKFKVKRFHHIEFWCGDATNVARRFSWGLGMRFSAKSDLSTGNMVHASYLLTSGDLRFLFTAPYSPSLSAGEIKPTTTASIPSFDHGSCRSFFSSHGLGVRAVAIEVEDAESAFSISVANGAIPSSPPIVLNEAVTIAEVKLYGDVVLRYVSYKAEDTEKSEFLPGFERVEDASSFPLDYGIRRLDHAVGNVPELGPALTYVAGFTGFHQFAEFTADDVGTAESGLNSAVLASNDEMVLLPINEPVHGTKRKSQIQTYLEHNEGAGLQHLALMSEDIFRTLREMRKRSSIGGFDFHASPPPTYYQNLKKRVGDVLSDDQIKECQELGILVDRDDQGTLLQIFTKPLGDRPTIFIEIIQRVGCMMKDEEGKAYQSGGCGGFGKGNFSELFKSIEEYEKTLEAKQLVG
T4 sequence (O48604 whole entry R146V/R147D/R148G/A164G/F377L): as the sequence (O48604 whole entry R146V/R147D/R148G/A164G/V212I/P321R/L353M) above, with I212V, R321P, M353L, F377L counted along it

SMILES	TI Inhibitor 1 (normalized tolerance index) [1]	TI Inhibitor 1 (normalized tolerance index) (Synechococcus HPPD)	TI Inhibitor 1 (normalized tolerance index) [2]	TI Inhibitor 1 (normalized tolerance index) (Picrophilus HPPD)	TI Inhibitor 1 (normalized tolerance index) (HPPD Seq ID 69)	TI Inhibitor 1 (normalized tolerance index) (HPPD Seq ID 67)	TI Inhibitor 1 (normalized tolerance index) [3]	TI Inhibitor 1 (normalized tolerance index) [4]	TI Inhibitor 1 (normalized tolerance index) [5]	TI Inhibitor 2 (normalized tolerance index) [6]
COc1no[nH]/c1=N/C(=O)c1ccc2c(c1Cl)S(=O)(=O)CCC2(C)C [Inhibitor 1, (NE)-8-chloro-N-(4-methoxy-1,2,5-oxadiazol-3-ylidene)-4,4-dimethyl-1,1-dioxo-2,3-dihydrothiochromene-7-carboxamide]	1.2	11.9	25.2	0.4	13.2	107.3	2.9	3.3	0.3	
Cc1c(C(=O)Nc2nnnn2C)ccc2c1C(=O)C(C)(C)CS2(=O)=O [Inhibitor 2, 3,3,5-trimethyl-N-(1-methyltetrazol-5-yl)-1,1,4-trioxo-2H-thiochromene-6-carboxamide]										4.6
